Experimental data reported in PubChem BioAssay AID651586 (Broad Institute, 2012).
Values joined by “and” are separate entries in the source; they are usually repeats but may differ in a detail not shown here. Identical values can stand only once.

System: SK-MEL-5 viability, CellTiter-Glo ATP luminescence, 24 h
Assay: SK-MEL-5 parental cell viability reduction, dose response, orthogonal assay for MITF inhibitor project, CellTiter-Glo luminescence, dry powder, set 8 (AID 651586)

In the case of O=C1C=C(Nc2ccccc2)C(=O)c2ccccc21, the IC50 is reported as 2.56 µM and 6.21 µM.
